The record followed here is PubChem BioAssay AID256 (DTP/NCI, 2004).

For this experiment, the system named is CD2F1 mice, L1210 leukemia ip, survival T/C. Nature of the experiment: NCI In Vivo Anticancer Drug Screen. Data for tumor model L1210 Leukemia (intraperitoneal) in CD2F1 (CDF1) mice. Conditions: endpoint: mean survival time, higher = longer survival. The method in brief:
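Ratio T/C, where T is the treated-group value and C the vehicle-dosed control value, from mice implanted with a transplantable tumor.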

[1] abbreviates: dose: 100.0 mg/kg/injection, schedule: Q01DX001 (ip), vehicle: saline.
Where [2] appears, read: dose: 200.0 mg/kg/injection, schedule: Q01DX001 (ip), vehicle: saline.
Setting [3] is: dose: 100.0 mg/kg/injection, schedule: Q04DX003 (ip), vehicle: saline with Tween-80.
The mark [4] stands for this setting: dose: 200.0 mg/kg/injection, schedule: Q04DX003 (ip), vehicle: saline with Tween-80.
Where [5] appears, read: dose: 400.0 mg/kg/injection, schedule: Q04DX003 (ip), vehicle: saline with Tween-80.
[6] abbreviates: dose: 100.0 mg/kg/injection, schedule: Q01DX001 (ip), vehicle: saline with Tween-80.
Setting [7] is: dose: 200.0 mg/kg/injection, schedule: Q01DX001 (ip), vehicle: saline with Tween-80.
Where [8] appears, read: dose: 400.0 mg/kg/injection, schedule: Q01DX001 (ip), vehicle: saline with Tween-80.
Setting [9] is: dose: 50.0 mg/kg/injection, schedule: Q01DX009 (ip), vehicle: Klucel (hydroxypropylcellulose) (HPC).
Setting [10] is: dose: 200.0 mg/kg/injection, schedule: Q01DX009 (ip), vehicle: Klucel (hydroxypropylcellulose) (HPC).
Setting [11] is: dose: 400.0 mg/kg/injection, schedule: Q01DX001 (ip), vehicle: saline.
The mark [12] stands for this setting: dose: 100.0 mg/kg/injection, schedule: Q01DX009 (ip), vehicle: saline with Tween-80.
Setting [13] is: dose: 200.0 mg/kg/injection, schedule: Q01DX009 (ip), vehicle: saline with Tween-80.
[14] abbreviates: dose: 100.0 mg/kg/injection, schedule: Q04DX003 (ip), vehicle: Klucel (hydroxypropylcellulose) (HPC).
The mark [15] stands for this setting: dose: 200.0 mg/kg/injection, schedule: Q04DX003 (ip), vehicle: Klucel (hydroxypropylcellulose) (HPC).
Setting [16] is: dose: 400.0 mg/kg/injection, schedule: Q04DX003 (ip), vehicle: Klucel (hydroxypropylcellulose) (HPC).

Each structure is given as a SMILES string. Inconclusive results and toxic doses are left out.

For `CS(=O)(=O)c1cnccn1`, the T/C is, setting by setting: (dose: 100.0 mg/kg/injection, schedule: Q04DX003 (ip), vehicle: saline sonified) 93 % of control; (dose: 200.0 mg/kg/injection, schedule: Q04DX003 (ip), vehicle: saline sonified) 95 % of control; (dose: 400.0 mg/kg/injection, schedule: Q04DX003 (ip), vehicle: saline sonified) 96 % of control.

For the compound `NC1(C(=O)O)CCCC1.[Pd]`, the T/C is 100 % of control under setting [1] and 96 % of control under setting [2].

On to `CCCCCOCC`, for which the T/C was 102 % of control (dose: 100.0 mg/kg/injection, schedule: Q04DX002 (ip), vehicle: saline with Tween-80); 98 % of control (dose: 200.0 mg/kg/injection, schedule: Q04DX002 (ip), vehicle: saline with Tween-80); 98 % of control (dose: 400.0 mg/kg/injection, schedule: Q04DX002 (ip), vehicle: saline with Tween-80).

`[C-]#[N+]C(C)(CC)c1ccccc1` (stereo not given): the T/C (dose: 35.0 mg/kg/injection, schedule: Q01DX009 (ip), vehicle: saline with Tween-80) is 105 % of control.

Take `C/C=C1/C=CC2c3[nH]c4ccccc4c3CCN2C1` (stereo not given): the T/C is 93 % of control (dose: 20.0 mg/kg/injection, schedule: Q01DX001 (ip), vehicle: saline with Tween-80); 98 % of control (dose: 40.0 mg/kg/injection, schedule: Q01DX001 (ip), vehicle: saline with Tween-80); 90 % of control (dose: 80.0 mg/kg/injection, schedule: Q01DX001 (ip), vehicle: saline with Tween-80).

Regarding `Cc1cc(CC(O)(C(F)(F)Cl)C(F)(F)Cl)cc(C)n1`, the T/C reads like this: under setting [3], 95 % of control; under setting [4], 92 % of control; under setting [5], 90 % of control.

Consider `CCOC(=O)N/N=C/c1ccccc1`, for which the T/C was 103 % of control under setting [6], 108 % of control under setting [7] and 110 % of control under setting [8].

On to `O=C1NC(CN2CCOCC2)C(=O)NC1CN1CCOCC1` (stereo not given), for which the T/C was 105 % of control (dose: 3.13 mg/kg/injection, schedule: Q01DX009 (ip), vehicle: water); 105 % of control (dose: 6.25 mg/kg/injection, schedule: Q01DX009 (ip), vehicle: water); 103 % of control (dose: 12.5 mg/kg/injection, schedule: Q01DX009 (ip), vehicle: water); 100 % of control (dose: 25.0 mg/kg/injection, schedule: Q01DX009 (ip), vehicle: water); 101 % of control (dose: 50.0 mg/kg/injection, schedule: Q01DX009 (ip), vehicle: water); 106 % of control (dose: 100.0 mg/kg/injection, schedule: Q01DX009 (ip), vehicle: water).

Regarding `CCCCC(Sc1nn(C2OC(COC(=O)c3ccccc3)C(OC(=O)c3ccccc3)C2OC(=O)c2ccccc2)c(=O)[nH]c1=O)C(=O)OCC` (stereo not given), the T/C reads like this: (dose: 12.5 mg/kg/injection, schedule: Q01DX005 (ip), vehicle: distilled water + Tween-80) 101 % of control; (dose: 25.0 mg/kg/injection, schedule: Q01DX005 (ip), vehicle: distilled water + Tween-80) 95 % of control; (dose: 50.0 mg/kg/injection, schedule: Q01DX005 (ip), vehicle: distilled water + Tween-80) 97 % of control; (dose: 100.0 mg/kg/injection, schedule: Q01DX005 (ip), vehicle: distilled water + Tween-80) 95 % of control; (dose: 200.0 mg/kg/injection, schedule: Q01DX005 (ip), vehicle: distilled water + Tween-80) 94 % of control.

On to `Cc1c(O)c2c(c(O)c1Cc1cccc(C#N)c1)C(=O)c1ccccc1C2=O`, for which the T/C by setting is: (dose: 12.5 mg/kg/injection, schedule: Q01DX009 (ip), vehicle: Klucel (hydroxypropylcellulose) (HPC)) 89 % of control; (dose: 25.0 mg/kg/injection, schedule: Q01DX009 (ip), vehicle: Klucel (hydroxypropylcellulose) (HPC)) 90 % of control; under setting [9], 90 % of control; under setting [10], 89 % of control.

Regarding `C=CC(=O)NC(C)(C)CC(C)=O`, the T/C under setting [6] was 98 % of control; the T/C under setting [1] was 103 % of control; the T/C (dose: 100.0 mg/kg/injection, schedule: Q01DX009 (ip), vehicle: saline) is 100 % of control; the T/C under setting [7] was 102 % of control; the T/C under setting [2] is 97 % of control; the T/C (dose: 200.0 mg/kg/injection, schedule: Q01DX009 (ip), vehicle: saline) is 100 % of control. The T/C runs as follows: under setting [8], 102 % of control; under setting [11], 102 % of control.

On to `C=CCC1(C(=O)OCC)CCCCC1=O` (stereo not given), for which the T/C by setting is: under setting [3], 103 % of control; under setting [4], 106 % of control; under setting [5], 110 % of control.

Consider `CCCCCCCN(CCCCCCC)CC(O)c1cc2ccc(Br)cc2c2cccnc12` (stereo not given), for which the T/C is, setting by setting: under setting [12], 95 % of control; under setting [13], 92 % of control.

With `c1ccc2c(c1)Cc1c(NC3=NCCO3)cccc1-2`, the T/C reads like this: under setting [3], 98 % of control; under setting [4], 109 % of control; under setting [5], 101 % of control.

Consider `CC(=O)NC(Cc1ccc(N(CCCl)CCCl)cc1)C(=O)O` (stereo not given), for which the T/C by setting is: (dose: 3.12 mg/kg/injection, schedule: Q01DX009 (ip), vehicle: saline) 97 % of control; (dose: 6.25 mg/kg/injection, schedule: Q01DX009 (ip), vehicle: saline) 105 % of control; (dose: 12.5 mg/kg/injection, schedule: Q01DX009 (ip), vehicle: saline) 118 % of control.

In the case of `CN(C)CCOCCOc1ccc(C(C)(C)CC(C)(C)C)cc1`, the T/C was 105 % of control (dose: 1.5 mg/kg/injection, schedule: Q01DX009 (ip), vehicle: saline with Tween-80); 97 % of control (dose: 3.0 mg/kg/injection, schedule: Q01DX009 (ip), vehicle: saline with Tween-80); 100 % of control (dose: 6.0 mg/kg/injection, schedule: Q01DX009 (ip), vehicle: saline with Tween-80).

In the case of `CC(C)(O)CCC1CC1CCC(C)(C)O` (stereo not given), the T/C under setting [3] was 97 % of control, the T/C under setting [4] was 89 % of control and the T/C under setting [5] was 97 % of control.

Regarding `[Cl][Dy]([Cl])[Cl]`, the T/C (dose: 50.0 mg/kg/injection, schedule: Q01DX009 (ip), vehicle: saline with Tween-80) was 89 % of control and the T/C under setting [13] was 90 % of control.

For `O=C(Nc1cc(Cl)c(I)c(Cl)c1)C(F)(F)F`, the T/C runs as follows: under setting [1], 98 % of control; under setting [2], 101 % of control; under setting [11], 98 % of control.

Consider `CCc1cc(C)cc(OC(=O)Nc2ccc(Cl)cc2)c1`, for which the T/C under setting [12] is 93 % of control; the T/C under setting [3] is 107 % of control; the T/C under setting [13] is 100 % of control; the T/C under setting [4] is 93 % of control; the T/C (dose: 400.0 mg/kg/injection, schedule: Q01DX009 (ip), vehicle: saline with Tween-80) is 96 % of control; the T/C under setting [5] was 91 % of control.

On to `NC(=O)CSCC(N)=O`, for which the T/C runs as follows: under setting [3], 94 % of control; under setting [4], 96 % of control; under setting [5], 90 % of control.

In the case of `O=C(OCC1OCOC1C1OCOC1COC(=O)c1ccccc1)c1ccccc1` (stereo not given), the T/C was 102 % of control under setting [14], 97 % of control under setting [15] and 91 % of control under setting [16].

With `C1CC(N2CC2)CCC1N1CC1` (stereo not given), the T/C by setting is: (dose: 6.0 mg/kg/injection, schedule: Q04DX003 (ip), vehicle: saline) 169 % of control; (dose: 9.0 mg/kg/injection, schedule: Q04DX003 (ip), vehicle: saline) 124 % of control; (dose: 13.0 mg/kg/injection, schedule: Q04DX003 (ip), vehicle: saline) 110 % of control; (dose: 20.0 mg/kg/injection, schedule: Q04DX003 (ip), vehicle: saline) 86 % of control.

Regarding `CC(C)CCCC(C)C1CCC2C3CCC4CC(OCN5CCCCC5)CCC4(C)C3CCC12C` (stereo not given), the T/C reads like this: under setting [14], 95 % of control; under setting [15], 92 % of control; under setting [16], 92 % of control.

As for `CC(Cl)CN(CC(C)Cl)c1ccc(N=Nc2ccccc2)cc1` (stereo not given), the T/C under setting [9] was 100 % of control; the T/C (dose: 100.0 mg/kg/injection, schedule: Q01DX009 (ip), vehicle: Klucel (hydroxypropylcellulose) (HPC)) was 106 % of control; the T/C under setting [10] is 90 % of control.
